{"source": "patent US5244918A", "about": "“Benzofuran derivative and pharmaceutical comprising the same as active ingredient” (Meiji Milk Products Co., Ltd., priority 1989, dated 1993)", "key": {"[1]": {"molecular_target": "T1, 5-lipoxygenase (Rattus norvegicus, UniProt P12527)", "T1 construct": "ultracentrifugation at 100,000×g for 90 minutes to collect a supernatant, which was served as a 5-lipoxygenase enzyme liquid; host or cells: RBL-1 (rat basophilic leukemia cells), 100,000×g supernatant of sonicated cells", "T1 sequence (P12527 1-673)": "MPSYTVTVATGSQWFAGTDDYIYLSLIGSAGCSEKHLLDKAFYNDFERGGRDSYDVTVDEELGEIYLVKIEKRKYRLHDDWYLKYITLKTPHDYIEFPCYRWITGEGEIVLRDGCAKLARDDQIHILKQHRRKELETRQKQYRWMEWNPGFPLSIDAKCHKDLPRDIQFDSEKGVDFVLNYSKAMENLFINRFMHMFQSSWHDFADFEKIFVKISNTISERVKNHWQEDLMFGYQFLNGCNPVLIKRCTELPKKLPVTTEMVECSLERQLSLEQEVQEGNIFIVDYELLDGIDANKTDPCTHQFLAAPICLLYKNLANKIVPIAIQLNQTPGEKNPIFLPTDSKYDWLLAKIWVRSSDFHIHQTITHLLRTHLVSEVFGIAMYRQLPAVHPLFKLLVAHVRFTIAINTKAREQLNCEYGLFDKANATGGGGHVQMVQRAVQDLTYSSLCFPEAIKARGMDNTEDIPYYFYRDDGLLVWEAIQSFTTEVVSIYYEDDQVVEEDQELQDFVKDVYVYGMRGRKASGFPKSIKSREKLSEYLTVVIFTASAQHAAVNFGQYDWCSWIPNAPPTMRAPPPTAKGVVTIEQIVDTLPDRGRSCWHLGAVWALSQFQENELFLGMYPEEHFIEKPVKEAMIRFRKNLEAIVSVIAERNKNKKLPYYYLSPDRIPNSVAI", "assay": "5-Lipoxygenase inhibitive activity (production of 5-HETE by RBL-1 cell supernatant)", "assay_type": "biochemical", "settings": "for IC50: inhibition of 5-HETE production, 37° C., 10 minutes, 100 μM arachidonic acid", "experimental": "2.5×10^7 RBL-1 cells (rat basophilic leukemia cells, purchased from Dainippon Pharmaceutical Co. Ltd.) were washed twice with 0.1M Tris-HCl buffer (pH 7.5) and ultrasonicated. The pulverized cell liquid was subjected to ultracentrifugation at 100,000×g for 90 minutes to collect a supernatant, which was served as a 5-lipoxygenase enzyme liquid in the test. […] After terminating the reaction by an addition of 50 μl of 1N HCl, the reaction mixture was extracted with 6 ml of ethyl acetate."}, "[2]": {"system": "SRS-A production", "settings": "Prostaglandins 26, 955-973 (1983); read-out: 50% inhibition concentration (known agent, literature); cited from earlier work"}, "[3]": {"system": "auricle edema induced with arachidonic acid", "assay": "Auricle edema inhibitive activity in mice (induced with arachidonic acid)", "assay_type": "in vivo, mouse (ICR male)", "settings": "topical", "experimental": "In vivo anti-inflammatory action of Compound 1 was tested using auricle edema in mice as a model.\nICR male mice (Japan Charles River), weighing 29.9-40.4 g, 8 week age, were anesthetized with pentobarbital (Trademark: Nembutal, manufactured by Dainabott-Dainippon Pharmaceutical Co., Ltd.) to measure the thickness of the right ear with a dial thickness gauge. 20 μl of Compound 1 and control compound (acetone) were applied (the amount hereinafter specified) to the inside of the right ear with microsyringe, and, 30 minutes later, 2 mg of arachidonic acid was applied in the same manner to the inside of the right ear. The thickness of the right ear was measured 60 minutes after the application of arachidonic acid. Mice were then sacrificed by vertebral cervical dislocation and a circle with a diameter of 7 mm was cut out from the center of the right ear with an ear punch to measure its weight. The test was performed twice; the amounts of Compound 1 applied were 4 mg, 1 mg, 0.4 mg, 0.04 mg, and 0.004 mg per ear for the first test and 1 mg, 0.2 mg, 0.04 mg, 0.008 mg, and 0.0016 mg per ear for the second test. Both Compound 1 and arachidonic acid were used as dissolved in acetone.\nThe results are shown in FIG. 8-1 (the first test) and FIG. 8-2 (the second test). […] The 50% effective dose (ED50) in the two experiments were very close to each other, 0.03-0.08 mg/ear."}, "[4]": {"system": "mice", "assay": "Single administration toxicity test in mice", "settings": "mouse, in vivo", "experimental": "Compound 1 was intravenously or intraperitoneally administered one time to groups of ICR male mice (age: 5 weeks, purchased from Japan SLC Co.), each group consisting of 5, to observe the death of the mice in 14 days. […] Thus, the fatal dose of Compound 1 in single intravenous administration to mice was above 20 mg/kg. […] The fatal dose of Compound 1 in single intraperitoneal administration to mice was about 100 mg/kg or more."}, "[5]": {"system": "edema in paws of rats", "assay": "Edema inhibitive activity in rat soles (arachidonate-induced paw edema)", "assay_type": "in vivo, rat (Wister male)", "settings": "200 mg/kg oral", "experimental": "In vivo anti-inflammatory action of Compound 1 was tested using edema in paws of rats as a model.\nWister male rats (Japan Charles River), weighing 150-170 g, 6 week age, were fasted from the previous day of the test for serving to the experiment.\nSamples (10 ml/kg) were orally administered to the control (solvent: 0.5% gum arabica) group and Compound 1 (200 mg/kg body weight) test group. After 2 hours, 100 μl of a sodium arachidonate solution (5 mg/ml, 0.1M carbonate buffer, pH 8.4) was injected in the paw to determine the increase of the edema volume after 1 hour. The increase of the edema volume was determined by subtracting the value measured 1 hour before the administration of arachidonate from the value measured 1 hour after the administration. The foot volume increase (ml, means±S.D.) in the control group was 0.822±0.131 (n=10), whereas that in Compound 1 test group was 0.664±0.104 (n=8)."}, "[6]": {"system": "SRS-A production", "assay": "SRS-A production inhibitive activity (sensitized guinea pig lung fragments, ileum bioassay)", "assay_type": "cell-based, guinea pig (Hartley male)", "experimental": "LTC4 and LTD4 which consist of SRS-A are very strong chemical mediators of allergic bronchial asthma and the like. The inhibitory effect of Compound 1 against the production of SRS-A was therefore biologically measured.\nA suspension of 1 mg of egg white albumin and 0.5 ml of complete Freund's adjuvant was intraperitoneally injected to Hartley male guinea pigs. The same antigen liquid was again injected 2 or 3 weeks thereafter to effect the sensitization. The sensitized guinea pigs were sacrificed by bleeding, and the lung was washed with a Tyrode's solution and cut into pieces to prepare lung fragment specimens. 300 mg of the lung fragments were floated on 2.8 ml of the Tyrode's solution. After shaking the solution at 37° C. for 20 minutes, 0.1 ml of Compound 1 was added. Shaking this solution was carried out for a further 5 minutes, followed by the addition of 0.1 ml of an egg white albumin solution (the ultimate antigen concentration: 1 mg/ml). After the reaction at 37° C. for 20 minutes, 12 ml of methanol was added and the mixture was stirred. The reaction mixture was centrifuged, the supernatant was concentrated under reduced pressure to dryness, and the dry solid was dissolved into 1 ml of water to biologically measure LTs (SRS-A) contained therein.\nThe determination of the quantity of SRS-A produced was carried out by using the ileum enucleated from Hartley male guinea pigs and counting the constriction of the ileum in the presence of 10^-6 M Atropine and Pyrilamine. A standard curve for the standard sample was prepared based on LTD4 to determine the amount of SRS-A produced by the effect of Compound 1 as the amount of LTD4."}}, "note": "Like-named read-outs stand apart in the source and are kept apart here.", "data": [{"molecule": "2-(1,3-pentadienyl)-2,3-dihydro-5-hydroxy(or methoxy)-7-methoxy(or hydroxy)benzofuran [Compound 3]", "values": [{"measurement": "IC50", "setting": "[1]", "value": 1500, "unit": "nM"}]}, {"molecule": "CC1=C(C)C(=O)C(CCCCC#CCCCC#CCO)=C(C)C1=O", "note": "[AA-861]", "values": [{"measurement": "IC50", "setting": "[2]", "value": 1800, "unit": "nM"}]}, {"molecule": "C/C=C/C=C/C1Cc2cc(O)cc(O)c2O1", "note": "(stereo not drawn) [Compound 1, 2-(1-tans, 3-trans-pentadienyl)-2,3-dihydro-5,7-dihydroxybenzofuran]", "values": [{"measurement": "50% effective dose (ED50)", "setting": "[3]; inside of right ear, 30 min before 2 mg arachidonic acid, two experiments", "value": "0.03-0.08 mg/ear"}, {"measurement": "inhibitory effect against auricle edema (in words)", "setting": "[3]; ear thickness and weight, FIG. 8-1, 8-2", "value": "dose dependent inhibitory effect"}, {"measurement": "death of mice, intraperitoneal", "setting": "[4]", "value": "no death in the mice occurred"}, {"measurement": "fatal dose, single intraperitoneal administration", "setting": "[4]; ip", "value": "≥ 100", "unit": "mg/kg"}, {"measurement": "fatal dose, single intravenous administration", "setting": "[4]; iv", "value": "above 20 mg/kg"}, {"measurement": "death of mice, intravenous", "setting": "[4]; iv, 20 mg/kg", "value": "no mice were dead"}, {"measurement": "general conditions, body weight and autopsy, intravenous", "setting": "[4]; iv, 20 mg/kg", "value": "No abnormality was observed"}, {"measurement": "5-lipoxygenase inhibitory activity (in words)", "setting": "[1]", "value": "specific 5-lipoxygenase inhibitory activity"}, {"measurement": "IC50", "setting": "[1]", "value": 2000, "unit": "nM"}, {"measurement": "foot volume increase (means±S.D.)", "setting": "[5]; 2 h before arachidonate, 1 h after, n=8, control 0.822±0.131 (n=10)", "value": "0.664 ± 0.104", "unit": "mL"}, {"measurement": "edema inhibitory effect", "setting": "[5]; versus control group", "value": 19.2, "unit": "%"}, {"measurement": "SRS-A inhibitory effect compared with AA-861 (in words)", "setting": "[6]; AA-861: 1.8×10^-6 M (literature)", "value": "equivalent to a known 5-lipoxygenase inhibitory agent, AA-861"}, {"measurement": "IC50", "setting": "[6]; Cavia porcellus, 20 min, sensitized guinea pig lung fragments, egg white albumin 1 mg/ml, 37° C., 20 min, read-out: 50% inhibition concentration, SRS-A production", "value": 4000, "unit": "nM"}, {"measurement": "SRS-A production inhibitory effect (in words)", "setting": "[6]; guinea pig lung", "value": "dependent on the concentration"}]}, {"molecule": "CCCCCC1Cc2cc(O)cc(O)c2O1", "note": "(centres unmarked) [Compound 2, 2-n-pentyl-2,3-dihydro-5,7dihydroxybenzofuran]", "values": [{"measurement": "IC50", "setting": "[1]", "value": 1200, "unit": "nM"}]}]}
